Assay [1] has as its target T1, Bone morphogenetic protein 1 (Homo sapiens, UniProt P13497).
T1 sequence (P13497 whole entry): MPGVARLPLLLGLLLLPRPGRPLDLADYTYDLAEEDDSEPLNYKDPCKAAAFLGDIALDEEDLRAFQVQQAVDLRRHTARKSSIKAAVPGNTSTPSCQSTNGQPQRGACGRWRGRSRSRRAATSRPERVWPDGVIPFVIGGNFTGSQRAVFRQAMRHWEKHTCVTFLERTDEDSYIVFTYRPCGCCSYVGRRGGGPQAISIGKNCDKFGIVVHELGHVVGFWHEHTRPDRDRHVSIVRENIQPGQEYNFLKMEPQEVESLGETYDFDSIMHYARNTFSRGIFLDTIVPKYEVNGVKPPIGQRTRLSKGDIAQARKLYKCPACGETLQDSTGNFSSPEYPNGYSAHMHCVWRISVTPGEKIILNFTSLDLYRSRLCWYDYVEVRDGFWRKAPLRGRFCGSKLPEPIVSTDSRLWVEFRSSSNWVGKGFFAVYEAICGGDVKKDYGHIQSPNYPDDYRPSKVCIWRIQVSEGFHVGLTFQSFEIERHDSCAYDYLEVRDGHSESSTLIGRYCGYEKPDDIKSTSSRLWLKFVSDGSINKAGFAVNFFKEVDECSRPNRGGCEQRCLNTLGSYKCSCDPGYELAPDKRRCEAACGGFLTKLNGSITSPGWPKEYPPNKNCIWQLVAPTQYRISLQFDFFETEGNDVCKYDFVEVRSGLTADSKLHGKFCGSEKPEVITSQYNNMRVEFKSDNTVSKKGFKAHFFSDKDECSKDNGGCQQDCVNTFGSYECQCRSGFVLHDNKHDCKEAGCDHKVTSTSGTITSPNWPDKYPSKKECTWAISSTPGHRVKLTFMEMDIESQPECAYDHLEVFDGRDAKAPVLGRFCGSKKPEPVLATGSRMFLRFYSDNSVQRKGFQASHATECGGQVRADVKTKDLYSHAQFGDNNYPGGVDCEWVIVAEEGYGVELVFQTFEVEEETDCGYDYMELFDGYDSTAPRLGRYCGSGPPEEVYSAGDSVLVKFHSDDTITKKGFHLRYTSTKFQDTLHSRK
Nature of the assay: Inhibition of C-terminal FLAG-6x-His epitope tagged and N-terminal human RAGE signal sequence tagged human BMP1 (23 to 721 amino acids) expressed in CHO-E1 cells pre-incubated for 10 mins before promyostatin peptide substrate addition and measured after 60 mins using 0.5 nM BMP1 by FRET based assay. It is filed as cell-based.

The target in assay [2] is T1, Bone morphogenetic protein 1. Briefly: Inhibition of C-terminal FLAG-6x-His epitope tagged and N-terminal human RAGE signal sequence tagged human BMP1 (23 to 721 amino acids) expressed in CHO-E1 cells pre-incubated for 10 mins before promyostatin peptide substrate addition and measured after 30 mins using 50 nM BMP1 by FRET based assay. It is filed as cell-based.
For assay [3], the target named is Tolloid-like protein 1 (Homo sapiens, UniProt O43897, I156V/N221S/V284A). Briefly: Inhibition of recombinant human TLL1 I156V/N221S/V284A mutant expressed in CHOE1A cells pre-incubated for 10 mins before promyostatin peptide substrate addition and measured after 60 mins by FRET based assay. It is filed as cell-based.
The nature of assay [4]: Reduction in PICP levels in human cardiac fibroblasts incubated for 24 to 48 hrs by ELISA. It is filed as functional. Summed up: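 Human cardiac fibroblasts no older than passage 6 were seeded at 10,000 to 15,000 cells per well in 96-well plates and, one day later, exposed for 24 to 48 hr at 37° C to treatment in ficoll crowding EMEM with 100 μM ascorbic acid and less than 0.3% DMSO. IC50 was determined in GraphPad Prism from a log(inhibitor)-response fit of procollagen I C-terminal propeptide levels in the medium, measured by Quidel ELISA and expressed relative to untreated controls.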

The target in assay [5] is T2, Tolloid-like protein 2 (Homo sapiens, UniProt Q9Y6L7).
T2 sequence (Q9Y6L7 whole entry): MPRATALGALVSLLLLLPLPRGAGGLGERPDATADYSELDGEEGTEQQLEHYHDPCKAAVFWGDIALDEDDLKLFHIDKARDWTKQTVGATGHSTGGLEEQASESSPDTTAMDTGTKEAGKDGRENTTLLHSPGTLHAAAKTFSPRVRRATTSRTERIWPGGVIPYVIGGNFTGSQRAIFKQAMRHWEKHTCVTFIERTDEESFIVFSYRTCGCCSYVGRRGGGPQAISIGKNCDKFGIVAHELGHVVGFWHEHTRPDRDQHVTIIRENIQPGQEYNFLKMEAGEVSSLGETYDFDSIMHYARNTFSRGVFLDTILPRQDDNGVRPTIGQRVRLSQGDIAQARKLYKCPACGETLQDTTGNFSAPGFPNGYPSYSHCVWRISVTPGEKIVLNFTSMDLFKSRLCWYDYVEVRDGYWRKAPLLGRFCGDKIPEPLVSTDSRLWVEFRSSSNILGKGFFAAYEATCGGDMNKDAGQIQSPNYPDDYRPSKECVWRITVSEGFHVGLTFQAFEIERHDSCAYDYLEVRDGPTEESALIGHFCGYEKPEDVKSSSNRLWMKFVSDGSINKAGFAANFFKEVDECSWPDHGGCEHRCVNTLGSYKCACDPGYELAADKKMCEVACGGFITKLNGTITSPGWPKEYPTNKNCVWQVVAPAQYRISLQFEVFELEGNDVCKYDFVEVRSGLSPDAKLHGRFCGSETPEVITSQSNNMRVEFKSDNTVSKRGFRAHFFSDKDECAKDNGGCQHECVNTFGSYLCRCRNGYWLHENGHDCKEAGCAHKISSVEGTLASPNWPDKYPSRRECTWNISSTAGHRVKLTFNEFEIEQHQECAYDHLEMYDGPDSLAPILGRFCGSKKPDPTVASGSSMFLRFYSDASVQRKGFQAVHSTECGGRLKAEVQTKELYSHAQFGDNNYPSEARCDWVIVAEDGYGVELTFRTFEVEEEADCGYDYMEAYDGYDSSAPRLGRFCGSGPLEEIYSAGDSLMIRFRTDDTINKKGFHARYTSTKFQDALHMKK
Briefly: Inhibition of C-terminal Avi-6x-His epitope tagged and N-terminal human RAGE signal sequence tagged recombinant human TLL2 (26 to 1015 amino acids) expressed in CHOE1A cells incubated for 60 mins with promyostatin peptide substrate by FRET based assay. It is filed as cell-based.

Chain of Tolloid-like protein 1 (O43897 148-1013 I156V/N221S/V284A limits assumed): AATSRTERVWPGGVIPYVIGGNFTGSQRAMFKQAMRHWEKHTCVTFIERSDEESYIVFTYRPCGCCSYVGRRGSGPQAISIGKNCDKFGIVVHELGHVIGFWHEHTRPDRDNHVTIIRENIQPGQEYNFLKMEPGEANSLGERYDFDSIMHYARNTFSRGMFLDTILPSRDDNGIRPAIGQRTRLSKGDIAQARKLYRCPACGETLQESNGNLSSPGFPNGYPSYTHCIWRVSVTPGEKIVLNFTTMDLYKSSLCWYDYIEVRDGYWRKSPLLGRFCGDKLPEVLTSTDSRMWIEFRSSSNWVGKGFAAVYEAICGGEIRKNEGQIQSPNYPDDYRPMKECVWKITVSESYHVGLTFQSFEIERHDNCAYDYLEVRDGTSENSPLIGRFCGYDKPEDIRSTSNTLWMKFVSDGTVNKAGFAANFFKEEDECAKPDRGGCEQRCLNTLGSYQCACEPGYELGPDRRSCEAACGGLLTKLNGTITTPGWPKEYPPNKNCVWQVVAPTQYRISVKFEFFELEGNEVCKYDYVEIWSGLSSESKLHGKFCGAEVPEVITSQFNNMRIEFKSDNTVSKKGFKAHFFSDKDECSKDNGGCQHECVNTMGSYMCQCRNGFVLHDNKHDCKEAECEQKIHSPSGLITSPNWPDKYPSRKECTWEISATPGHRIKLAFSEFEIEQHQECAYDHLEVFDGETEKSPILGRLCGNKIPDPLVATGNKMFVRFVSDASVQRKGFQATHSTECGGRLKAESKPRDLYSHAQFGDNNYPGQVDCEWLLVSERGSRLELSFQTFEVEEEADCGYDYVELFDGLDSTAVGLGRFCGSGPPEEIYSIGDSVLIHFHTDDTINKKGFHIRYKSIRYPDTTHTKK

Consider `CCCCC[C@@H](C(=O)NCNC(=O)c1ccc(-c2ccc(CC(=O)O)c(OCC)c2)o1)[C@@H](CC)N(O)C=O`, for which the IC50 in assay [1] was under 126 nM; in assay [2], under 200 nM; in assay [3] it was under 398 nM; in assay [4] it was under 3980 nM; in assay [5], under 794 nM.

On to `CCCCC[C@@H](C(=O)NCNC(=O)c1ccc(-c2ccc(C3(C(=O)O)CC3)cc2)o1)[C@@H](CC)N(O)C=O`, for which the IC50 in assay [1] is under 126 nM; in assay [2] it was under 200 nM; in assay [3], under 398 nM; in assay [4], under 3980 nM; in assay [5], under 794 nM.

For the compound `CCCCC[C@@H](C(=O)NCNC(=O)c1ccc(-c2ccc(C(C)(C)C(=O)O)cc2)o1)[C@@H](CC)N(O)C=O`, the IC50 in assay [1] is under 126 nM; in assay [2] it was under 200 nM; in assay [3], under 398 nM; in assay [4] it was under 3980 nM; in assay [5], under 794 nM.

On to `CCCCC[C@@H](C(=O)NCNC(=O)c1ccc(-c2cc(OCC)cc(C(F)(F)C(=O)O)c2)o1)[C@@H](CC)N(O)C=O`, for which the half-maximal inhibitory concentration (IC50) in assay [1] was under 126 nM; in assay [2] it was under 200 nM; in assay [3], under 398 nM; in assay [4], under 3980 nM; in assay [5], under 794 nM.

For `CCCCC[C@@H](C(=O)NCNC(=O)c1ccc(-c2cc(OCC)cc(P(=O)(OC)OC)c2)o1)[C@@H](CC)N(O)C=O`, the IC50 in assay [1] was under 126 nM; in assay [2] it was under 200 nM; in assay [3], under 398 nM; in assay [4], under 3980 nM; in assay [5], under 794 nM.

Turning to `CCCCC[C@H](CN(O)C=O)C(=O)NCNC(=O)c1ccc(-c2cccc(CC(=O)O)c2)o1`, the IC50 is under 126 nM in assay [1]; under 200 nM in assay [2]; under 398 nM in assay [3]; under 3980 nM in assay [4]; under 794 nM in assay [5].

For the compound `CCCCC[C@@H](C(=O)NCNC(=O)c1ccc(-c2ccc(CC(=O)O)cc2)o1)[C@@H](CC)N(O)C=O`, the IC50 in assay [1] is under 126 nM; in assay [2], under 200 nM; in assay [3], under 398 nM; in assay [4], under 3980 nM; in assay [5], under 794 nM.

Turning to `CCCCC[C@H](CN(O)C=O)C(=O)NCNC(=O)c1ccc(-c2cccc(OC(F)F)c2)o1`, the IC50 in assay [1] is under 126 nM; in assay [2], under 200 nM; in assay [3] it was under 398 nM; in assay [4], under 3980 nM; in assay [5] it was under 794 nM.

As for `CCCCC[C@H](CN(O)C=O)C(=O)NCNC(=O)c1ccc(-c2ccc(F)c(C(=O)OC)c2)o1`, the IC50 is under 126 nM in assay [1]; under 200 nM in assay [2]; under 398 nM in assay [3]; under 3980 nM in assay [4]; under 794 nM in assay [5].

Regarding `CCCCC[C@H](CN(O)C=O)C(=O)NCNC(=O)c1ccc(-c2cc(OC)ccc2OC)o1`, the IC50 is under 126 nM in assay [1]; under 200 nM in assay [2]; under 398 nM in assay [3]; under 3980 nM in assay [4]; under 794 nM in assay [5].

With `CCCCC[C@@H](C(=O)NCNC(=O)c1ccc(-c2cc(OCC)cc(C(=O)N[C@@H](CCC(=O)O)C(=O)OC(C)(C)C)c2)o1)[C@@H](CC)N(O)C=O`, the IC50 was under 126 nM in assay [1]; under 200 nM in assay [2]; under 398 nM in assay [3]; under 3980 nM in assay [4]; under 794 nM in assay [5].

In the case of `CCCCC[C@H](CN(O)C=O)C(=O)NCNC(=O)c1ccc(-c2cc(OC)cc(OC)c2)o1`, the IC50 in assay [1] was under 126 nM; in assay [2], under 200 nM; in assay [3], under 398 nM; in assay [4], under 3980 nM; in assay [5], under 794 nM.

Regarding `CCCCC[C@H](CN(O)C=O)C(=O)NCNC(=O)c1ccc(-c2cccc(C(=O)O)c2F)o1`, the IC50 in assay [1] was under 126 nM; in assay [2] it was under 200 nM; in assay [3], under 398 nM; in assay [4] it was under 3980 nM; in assay [5] it was under 794 nM.

Turning to `CCCCC[C@@H](C(=O)NCNC(=O)c1ccc(-c2cc(OCC)cc(C(=O)N[C@@H](CCC(=O)OC)C(=O)OC)c2)o1)[C@@H](CC)N(O)C=O`, the IC50 in assay [1] is under 126 nM; in assay [2], under 200 nM; in assay [3], under 398 nM; in assay [4], under 3980 nM; in assay [5], under 794 nM.

Consider `CCCCC[C@H](CN(O)C=O)C(=O)NCNC(=O)c1ccc(-c2cc(OCC)cc(C(=O)O)c2)o1`, for which the IC50 in assay [1] was under 126 nM; in assay [2], under 200 nM; in assay [3] it was under 398 nM; in assay [4] it was under 3980 nM; in assay [5] it was under 794 nM.

Consider `CCCCC[C@H](CN(O)C=O)C(=O)NCNC(=O)c1ccc(-c2cccc(C(=O)O)c2C)o1`, for which the IC50 in assay [1] was under 126 nM; in assay [2], under 200 nM; in assay [3], under 398 nM; in assay [4], under 3980 nM; in assay [5], under 794 nM.

`CCCCC[C@H](CN(O)C=O)C(=O)NCNC(=O)c1ccc(-c2cccc(C(=O)O)c2OC)o1`: the IC50 was under 126 nM in assay [1]; under 200 nM in assay [2]; under 398 nM in assay [3]; under 3980 nM in assay [4]; under 794 nM in assay [5].

`CCCCC[C@H](CN(O)C=O)C(=O)NCNC(=O)c1ccc(-c2cc(OC)cc(C(=O)O)c2)o1`: the IC50 is under 126 nM in assay [1]; under 200 nM in assay [2]; under 398 nM in assay [3]; under 3980 nM in assay [4]; under 794 nM in assay [5].

Turning to `CCCCC[C@H](CN(O)C=O)C(=O)NCNC(=O)c1ccc(-c2cc(OC)cc(C(=O)NCCN)c2)o1`, the IC50 was under 126 nM in assay [1]; under 200 nM in assay [2]; under 398 nM in assay [3]; under 3980 nM in assay [4]; under 794 nM in assay [5].

In the case of `CCCCC[C@@H](C(=O)NCNC(=O)c1ccc(-c2cc(OCC)cc(C(=O)NCCN)c2)o1)[C@@H](CC)N(O)C=O`, the IC50 in assay [1] was under 126 nM; in assay [2] it was under 200 nM; in assay [3], under 398 nM; in assay [4], under 3980 nM; in assay [5], under 794 nM.

For the origin of these results see ChEMBL document CHEMBL4476867, “Hydroxy formamide derivatives and their use” (2016).
